Assays:
MLKL [1] = target: T1, MLKL (Homo sapiens, UniProt Q8NB16); experiment: MLKL degradation assay in HepG2 cell line (western blot); assay type: cell-based; design: endogenous in cells; host or cells: HepG2 or HaCaT; settings: cell line not given; for Degradation assay (Degradation %) 1 μM: compound 1 μM; for Degradation assay (Degradation %) 10 μM: compound 10 μM
T1 sequence (Q8NB16 1-471): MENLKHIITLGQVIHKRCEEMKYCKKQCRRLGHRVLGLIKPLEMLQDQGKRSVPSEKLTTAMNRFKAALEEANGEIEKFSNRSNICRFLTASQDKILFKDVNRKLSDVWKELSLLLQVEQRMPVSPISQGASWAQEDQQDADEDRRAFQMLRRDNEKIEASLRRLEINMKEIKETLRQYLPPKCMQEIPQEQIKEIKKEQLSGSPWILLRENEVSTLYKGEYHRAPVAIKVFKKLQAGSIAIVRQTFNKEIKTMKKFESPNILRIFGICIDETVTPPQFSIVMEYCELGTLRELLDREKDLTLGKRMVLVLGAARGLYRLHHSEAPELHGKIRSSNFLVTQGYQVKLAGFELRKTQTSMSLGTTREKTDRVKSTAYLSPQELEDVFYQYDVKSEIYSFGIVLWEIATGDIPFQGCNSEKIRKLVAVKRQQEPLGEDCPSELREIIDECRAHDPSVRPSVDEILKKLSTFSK
Method in brief: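 Western blot chemiluminescence of MLKL in equal-protein lysates (10-15 μg, BCA-adjusted). Before lysis, HepG2 cells were exposed to 1 or 10 μM (final) test compound for 20-24 h at 37 °C.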

MLKL [2] = target: T1, MLKL; experiment: Measurement of binding affinity with MLKL receptor (competitive binding assay, Kd); design: made in house; host or cells: HEK 293 cell line (T7 phage in E. coli BL21-derived host is also described)
Method in brief: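 Competition binding of kinase tagged with DNA for qPCR detection, expressed in HEK 293 cells, against immobilized ligand on beads. Final DMSO 0.9%. Kd derived from kinase amount in eluates measured by qPCR.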

FADD−/− Jurkat cells = experiment: Necroptosis inhibition assay, TNF-α-induced necroptosis (CellTiter-Glo 2.0); assay type: cell-based, human; settings: TNF-α 15 ng/mL; for Necroptosis inhibition assay (Rescue %) 1 μM: compound 1 μM; for Necroptosis inhibition assay (Rescue %) 10 μM: compound 10 μM
Method in brief: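 Necroptosis induced by 15 ng/mL TNF-α (final) for 20–24 h at 37 °C, after a 30 min room-temperature pretreatment of FADD-deficient Jurkat cells with 0.1, 1 or 10 μM compound. ATP-based luminescence gave viability, from which inhibition rate and cytotoxicity were derived.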

| Compound | Degradation assay (Degradation %) 1 μM (MLKL [1]) | Degradation assay (Degradation %) 10 μM (MLKL [1]) | Kd (MLKL [2]) | Necroptosis inhibition assay (Rescue %) 1 μM (FADD−/− Jurkat cells) | Necroptosis inhibition assay (Rescue %) 10 μM (FADD−/− Jurkat cells) | Necroptosis inhibition assay (Rescue %) 1 μM (FADD−/− Jurkat cells; FADD−/− Jurkat cells) | Necroptosis inhibition assay (Rescue %) 10 μM (FADD−/− Jurkat cells; FADD−/− Jurkat cells) |
| --- | --- | --- | --- | --- | --- | --- | --- |
| Nc1ncc(-c2cnn(C3CCN(C(=O)C4CCN(C(=O)C5CCN(c6cccc7c6C(=O)N(C6CCC(=O)NC6=O)C7=O)CC5)CC4)CC3)c2)nc1C(=O)OC(C(=O)Nc1ccc(F)cc1)c1ccccc1 (stereo not drawn) [TDH-273, 2-((4-fluorophenyl)amino)-2-oxo-1-phenylethyl 3-amino-6-(1-(1-(1-(1-(2-(2,6-dioxopiperidin-3-yl)-1,3-dioxoisoindolin-4-yl)piperidine-4-carbonyl)piperidine-4-carbonyl)piperidin-4-yl)-1H-pyrazol-4-yl)pyrazine-2-carboxylate] | 77.5% | 61.88% | 3.5 nM | 54.02% | 34.08% |  |  |
| Nc1ncc(-c2cnn(C3CCN(CC4CCN(C(=O)C5CCN(c6cccc7c6C(=O)N(C6CCC(=O)NC6=O)C7=O)CC5)CC4)CC3)c2)nc1C(=O)N[C@@H](C(=O)Nc1ccc(F)cc1)c1ccccc1 (stereo partly drawn) [TDH-209, 3-amino-6-(1-(1-((1-(1-(2-(2,6-dioxopiperidin-3-yl)-1,3-dioxoisoindolin-4-yl)piperidine-4-carbonyl)piperidin-4-yl)methyl)piperidin-4-yl)-1H-pyrazol-4-yl)-N-((R)-2-((4-fluorophenyl)amino)-2-oxo-1-phenylethyl)pyrazine-2-carboxamide] | 7.36% |  | 140 nM | 7.73% | 18.12% |  |  |
| Nc1ncc(-c2cnn(C3CCN(C(=O)CC4CCN(C(=O)C5CN(c6ccc7c(c6)C(=O)N(C6CCC(=O)NC6=O)C7=O)C5)CC4)CC3)c2)nc1C(=O)O[C@@H](C(=O)Nc1ccc(F)cc1)c1ccccc1 (stereo partly drawn) [TDH-401, (R)-2-((4-fluorophenyl)amino)-2-oxo-1-phenylethyl 3-amino-6-(1-(1-(2-(1-(1-(2-(2,6-dioxopiperidin-3-yl)-1,3-dioxoisoindolin-5-yl)azetidine-3-carbonyl)piperidin-4-yl)acetyl)piperidin-4-yl)-1H-pyrazol-4-yl)pyrazine-2-carboxylate] | 74.27% | 72.99% | 6.8 nM |  |  | 33.10% | 28.25% |
| Nc1ncc(-c2cnn(C3CCN(C(=O)c4cn(C5CCN(C(=O)COc6cccc7c6C(=O)N(C6CCC(=O)NC6=O)C7=O)CC5)cn4)CC3)c2)nc1C(=O)O[C@@H](C(=O)Nc1ccc(F)cc1)c1ccccc1 (stereo partly drawn) [TDH-354, (R)-2-((4-fluorophenyl)amino)-2-oxo-1-phenylethyl 3-amino-6-(1-(1-(1-(1-(2-((2-(2,6-dioxopiperidin-3-yl)-1,3-dioxoisoindolin-4-yl)oxy)acetyl)piperidin-4-yl)-1H-imidazole-4-carbonyl)piperidin-4-yl)-1H-pyrazol-4-yl)pyrazine-2-carboxylate] | 68.16% | 66.72% | 1.4 nM | 31.96% | 35.2% |  |  |
| Nc1ncc(-c2cnn(C3CCN(C4CC5(CCN(CC6CCN(C(=O)c7ccc(C(=O)NC8CCC(=O)NC8=O)cc7)CC6)CC5)C4)CC3)c2)nc1C(=O)O[C@@H](C(=O)Nc1ccc(F)cc1)c1ccccc1 (stereo partly drawn) [TDH-537, (R)-2-((4-fluorophenyl)amino)-2-oxo-1-phenylethyl 3-amino-6-(1-(1-(7-((1-(4-((2,6-dioxopiperidin-3-yl)carbamoyl)benzoyl)piperidin-4-yl)methyl)-7-azaspiro[3.5]nonan-2-yl)piperidin-4-yl)-1H-pyrazol-4-yl)pyrazine-2-carboxylate] | 64.82% | 86.14% | 0.61 nM |  |  | 32.07% | 30.76% |
| Nc1ncc(-c2cnn(C3CCN(CCCC4CCN(c5ccc6c(c5)C(=O)N(C5CCC(=O)NC5=O)C6=O)CC4)CC3)c2)nc1C(=O)O[C@@H](C(=O)Nc1ccc(F)cc1)c1ccccc1 (stereo partly drawn) [TDH-481, (R)-2-((4-fluorophenyl)amino)-2-oxo-1-phenylethyl 3-amino-6-(1-(1-(3-(1-(2-(2,6-dioxopiperidin-3-yl)-1,3-dioxoisoindolin-5-yl)piperidin-4-yl)propyl)piperidin-4-yl)-1H-pyrazol-4-yl)pyrazine-2-carboxylate] | 74.5% | 63.36% | 8.8 nM |  |  | 17.64% | 9.86% |
| Nc1ncc(-c2cnn(C3CCN(CCCN4CC5CN(C(=O)CCc6ccc7c(c6)C(=O)N(C6CCC(=O)NC6=O)C7=O)CC5C4)CC3)c2)nc1C(=O)O[C@@H](C(=O)Nc1ccc(F)cc1)c1ccccc1 (stereo partly drawn) [TDH-480, (R)-2-((4-fluorophenyl)amino)-2-oxo-1-phenylethyl 3-amino-6-(1-(1-(3-(5-(3-(2-(2,6-dioxopiperidin-3-yl)-1,3-dioxoisoindolin-5-yl)propanoyl)hexahydropyrrolo[3,4-c]pyrrol-2(1H)-yl)propyl)piperidin-4-yl)-1H-pyrazol-4-yl)pyrazine-2-carboxylate] | 46.42% | 73% | 0.48 nM |  |  | 35.76% | 39.78% |
| Nc1ncc(-c2cnn(C3CCN(CCC4CCN(c5cccc6c5C(=O)N(C5CCC(=O)NC5=O)C6=O)CC4)CC3)c2)nc1C(=O)O[C@@H](C(=O)Nc1ccc(F)cc1)c1ccccc1 (stereo partly drawn) [TDH-202, (R)-2-((4-fluorophenyl)amino)-2-oxo-1-phenylethyl 3-amino-6-(1-(1-(2-(1-(2-(2,6-dioxopiperidin-3-yl)-1,3-dioxoisoindolin-4-yl)piperidin-4-yl)ethyl)piperidin-4-yl)-1H-pyrazol-4-yl)pyrazine-2-carboxylate] | 65.39% | 53.78% | 2.1 nM | 60.16% | 29.13% |  |  |
| COc1ccc(C(=O)N2CCC(CCN3CCC(n4cc(-c5cnc(N)c(C(=O)O[C@@H](C(=O)Nc6ccc(F)cc6)c6ccccc6)n5)cn4)CC3)CC2)cc1N1CCC(=O)NC1=O [TDH-446, (R)-2-((4-fluorophenyl)amino)-2-oxo-1-phenylethyl 3-amino-6-(1-(1-(2-(1-(3-(2,4-dioxotetrahydropyrimidin-1(2H)-yl)-4-methoxybenzoyl)piperidin-4-yl)ethyl)piperidin-4-yl)-1H-pyrazol-4-yl)pyrazine-2-carboxylate] | 57.4% | 17.94% | 0.22 nM |  |  | 34.93% | 8.47% |
| Nc1ncc(-c2cnn(C3CCN(C(=O)C4CCN(c5cccc6c5C(=O)N(C5CCC(=O)NC5=O)C6=O)CC4)CC3)c2)nc1C(=O)OC(C(=O)Nc1ccc(F)cc1)c1ccccc1 (stereo not drawn) [TDH-279, 2-((4-fluorophenyl)amino)-2-oxo-1-phenylethyl 3-amino-6-(1-(1-(1-(2-(2,6-dioxopiperidin-3-yl)-1,3-dioxoisoindolin-4-yl)piperidine-4-carbonyl)piperidin-4-yl)-1H-pyrazol-4-yl)pyrazine-2-carboxylate] | 38.42% | 15.86% | 5 nM | 24.78% | 44.14% |  |  |
| Nc1ncc(-c2cnn(C3CCN(C(=O)c4cn(C5CCN(C(=O)C6CCN(c7cccc8c7C(=O)N(C7CCC(=O)NC7=O)C8=O)CC6)CC5)cn4)CC3)c2)nc1C(=O)O[C@@H](C(=O)Nc1ccc(F)cc1)c1ccccc1 (stereo partly drawn) [TDH-362, (R)-2-((4-fluorophenyl)amino)-2-oxo-1-phenylethyl 3-amino-6-(1-(1-(1-(1-(1-(2-(2,6-dioxopiperidin-3-yl)-1,3-dioxoisoindolin-4-yl)piperidine-4-carbonyl)piperidin-4-yl)-1H-imidazole-4-carbonyl)piperidin-4-yl)-1H-pyrazol-4-yl)pyrazine-2-carboxylate] | 69.87% | 69.78% | 5.5 nM | 17.89% | 16.12% |  |  |

— US20240252488A1 (KOREA RESEARCH INSTITUTE OF CHEMICAL TECHNOLOGY, priority 2020, published 2024)
